Several values for one entry are separate records, joined by “and”; a condition that tells them apart may be missing. Equal entries are not always repeated. Where two headings read alike, the source gives them in different places.
Legend:
S. venezuelensis L3s [1] = experiment: microbe, parasite or virus in culture; settings: L3s
Protocol: (§1) Baerman-obtained S. venezuelensis L3s were rinsed twice with distilled water and counted, and 100 to 150 larvae were placed per well in 96-well flat-bottom culture plates. Larvae were incubated at 28 °C for 30 min to allow adaptation and treated with compounds in the range of 0.5–40 µM for 72 h at 28 °C in a humid atmosphere. Mortality was assessed as the lack of any movement detected during 1 min of observation under an inverted microscope (40×), at 24, 48, and 72 h after treatment. The ability to stain the larvae was pointed out when observed; at 72 h, larvae were collected and washed two times with distilled water and placed in a new well to remove the background color and photographed. Pictures were also taken at 24 and 48 h without cleaning the larvae so as not to interfere with the 72 h readout of the experiment. […] All experiments were conducted in triplicate and at least three different times. The antiparasitic activity of the compounds was expressed as the concentration that inhibited the motility of half of the larvae (immobilization concentration 50, IC50).
A total of 15 dyes were tested against S. venezuelensis L3s at a 20 µM concentration. The activity was determined by the number of larvae lacking motility relative to the total number in the well after 1 min of light excitation at 24, 48, and 72 h after treatment.

[2] = tested on: parasitic females of S. venezuelensis; experiment: In vitro activity against adult females (movement categories); format: cell-based, Strongyloides venezuelensis; settings: 10 µM, 50–70 worms per well
Protocol: Seven to nine days after infection, the mice or rats were euthanized and the small intestine was removed, sliced longitudinally, minced, and placed in a sedimentation cup wrapped in 8 layers of gauze in phosphate-buffered solution (PBS) for two hours at 37 °C. Parasitic females were collected from the sediment and washed twice with saline solution (NaCl 0.15 mol/L) and twice with Roswell Park Memorial Institute 1640 (RPMI 1640) (Gibco, Whaltman, MA, USA) supplemented with 10% heat-inactivated FBS, 100 µg/mL streptomycin, and 100 U/mL penicillin (Gibco, Whaltman, MA, USA) to avoid contamination during the in vitro assays. After collection, females were placed in 96-well plates with supplemented RPMI medium and kept at 37 °C. We tested three different female population densities to explore the effects on the measured activity: 1–3 females, 10–15 females, and 50–70 females per well. At 24 h after plating, the compounds were applied at 10 µM and the anti-parasitic activity was evaluated at 1, 24, 48, and 72 h after treatment based on movement for 30 s observation periods under the microscope (40×). […] All experiments were conducted in duplicate and at least three different times. […]

[3] = tested on: HeLa (human cervical cancer) cell line; experiment: Cytotoxicity, MTT method; format: cell-based
Protocol: (§2) A cytotoxicity test was performed using the HeLa (human cervical cancer) cell line according to the MTT method. Cells were from the ATCC (Manassas, VA, USA). They were cultured at 37 °C in sub-confluent conditions under a 95% humidified atmosphere and 5% CO2 in Dulbecco’s Modified Eagle Medium (DMEM) (Gibco, Whaltman, MA, USA) supplemented with 10% heat-inactivated FBS, 2 mM L-glutamine, 100 U/mL penicillin, and 100 µg/mL streptomycin. […] The antiproliferative activity was measured in triplicate after 72 h using the MTT (3-(4,5-dimethylthiazol-2-yl)-2,5-diphenyltetrazolium bromide) Cell Proliferation Kit (Roche, Boston, MA, USA), following the manufacturer’s specifications. […] The selectivity index (SI = HeLa IC50/L3 IC50) for each compound was calculated to compare the antiparasitic activity with its respective human cell cytotoxicity.

[4] = tested on: S. venezuelensis experimental infections of mice; experiment: In vivo activity in S. venezuelensis experimental infection of mice (eggs in feces, parthenogenetic females); set-up: species or system Strongyloides venezuelensis; settings: for reduction in the number of parthenogenetic females: day 8 p.i., compared to infection group; for parthenogenetic females recovered per mouse at day 8 p.i.: ivermectin 0.2 mg/kg oral day 5 p.i., dyes 20 mg/kg/day day 0 to 5 p.i.
Protocol: All animals were infected by subcutaneous injection with 3000 […] of S. venezuelensis resuspended in PBS. […] The eggs per gram was reported. The recovery of parasite females was performed as described above. The mean was determined for the eggs per gram (EPG) of feces and parthenogenetic female counts. The color of the feces and urine in the beds was recorded.

[5] = tested on: parasitic females of S. venezuelensis; set-up: method as in PMID 35914566; settings: never achieving complete absence of movement at these concentrations; read-out: IC50 against adult females (literature); cited from earlier work
S. venezuelensis L3s [6] = experiment: Staining (uptake) of L3 larvae by the dyes; format: cell-based, Strongyloides venezuelensis; settings: for lowest staining concentration (Conc): 72 h
Protocol: as §1

[7] = tested on: parasitic females of S. venezuelensis; experiment: Staining of adult females by the dyes; format: cell-based, Strongyloides venezuelensis; settings: 10 µM
Cytotoxicity, MTT method = format: cell-based, human; settings: human; HeLa cells, 72 h, MTT; read-out: HeLa IC50 (antiproliferative activity / cytotoxicity)
Protocol: as §2

[8] = tested on: parasitic females of S. venezuelensis; experiment: In vitro activity against adult females (movement categories); format: cell-based, Strongyloides venezuelensis; settings: 72 h
[9] = read-out: IC50 72 h (immobilization concentration 50 of cultured L3s), 72 h

Compound: Ivermectin
- Screening 20 µM 72 h (S. venezuelensis L3s [1]; 72 h): Active
- IC50 (S. venezuelensis L3s [1]; read-out: IC50 24 h (immobilization concentration 50 of cultured L3s), 24 h): 2100 ± 100 nM
- IC50 (S. venezuelensis L3s [1]; read-out: IC50 48 h (immobilization concentration 50 of cultured L3s), 48 h): 1600 ± 300 nM
- IC50 (S. venezuelensis L3s [1]; [9]): 1500 ± 300 nM
- effect on adult females [2]: noticeable spasmodic movement
- Activity against parasitic females 1 h [2]: Affected
- Activity against parasitic females 24 h [2]: Affected
- Activity against parasitic females 48 h [2]: Slightly affected
- Activity against parasitic females 72 h [2]: Slightly affected
- IC50 ([3]; HeLa cells, 72 h, MTT, read-out: HeLa IC50 (antiproliferative activity / cytotoxicity)): 5900 nM
- reduction in the number of parthenogenetic females [4]: 91.5%
- parthenogenetic females recovered per mouse at day 8 p.i. [4]: 29 ± 12.3 and 29
- Eggs in feces at peak, day 5 p.i. ([4]; ivermectin (Noromectin) single oral dose 0.2 mg/kg on day 5 p.i.): 20,534 ± 15,961 eggs per gram
- IC50 [5]: > 229000 nM

Compound: CN(C)c1ccc2nc3ccc(=[N+](C)C)cc-3sc2c1 [Methylene Blue]
- IC50 (S. venezuelensis L3s [1]; [9]): 4300 ± 300 nM
- Staining 72 h (L3 staining ability) (S. venezuelensis L3s [6]): Yes
- lowest staining concentration (Conc) (S. venezuelensis L3s [6]): 1 µM
- effect on adult females [2]: significantly affected
- Activity against parasitic females 1 h [2]: Healthy
- Activity against parasitic females 24 h [2]: Affected
- Activity against parasitic females 48 h [2]: Death
- Activity against parasitic females 72 h [2]: Death
- Staining of parasitic females [7]: Yes
- staining of adult females [7]: clearly stained
- Staining (Time) ([7]; time at which staining of females was seen): 24 h
- IC50 at 72 h (Cytotoxicity, MTT method): 1100 nM
- IC50 [8]: 6020 nM

Compound: CN(C)c1ccc(C(=C2C=CC(=[N+](C)C)C=C2)c2ccc(N(C)C)cc2)cc1 [Crystal Violet]
- Screening 20 µM 72 h (S. venezuelensis L3s [1]; 72 h): Active
- Staining 72 h (L3 staining ability) (S. venezuelensis L3s [6]): Yes
- lowest staining concentration (Conc) (S. venezuelensis L3s [6]): 2 µM
- Activity against parasitic females 1 h [2]: Healthy
- Activity against parasitic females 24 h [2]: Healthy
- Activity against parasitic females 48 h [2]: Slightly affected
- Activity against parasitic females 72 h [2]: Slightly affected
- Staining of parasitic females [7]: No
- staining of adult females [7]: did not stain
- IC50 at 72 h (Cytotoxicity, MTT method): 1000 nM
- selectivity index (SI = HeLa IC50/L3 IC50) ([3]; HeLa IC50 / L3 IC50): 0.31
- reduction in the number of parthenogenetic females [4]: 46.5%
- parthenogenetic females recovered per mouse at day 8 p.i. [4]: 182

Reference: article PMC11434980, “Deciphering Chemical Rules for Drug Penetration into Strongyloides” (Pharmaceutics, 2024)
